Drawing on patent US9546151B2, “VMAT inhibitory compounds” (Oregon Health & Science University, priority 2014, dated 2017), this text covers melting point, IC50 and Ki for 25 compounds.

Counter-ions that a name gives are not always drawn. Like-named read-outs stand apart in the source and are kept apart here.

Data set [1] addresses T1, VMAT2 (Homo sapiens, UniProt Q05940). As to the kind of experiment: hVMAT2 5HT Uptake. In kind it is biochemical. Also on record: expressed in transfected cells; host or cells: HEK (human embryonic kidney) cells. How it is done: (§1) Membrane preparation for binding, uptake and release assays using HEK-hVMAT2 cells: Human embryonic kidney cells expressing the human vesicular monoamine transporter 2 (HEK-hVMAT2) were used. HEK-hVMAT2 cells were grown until confluent. The media was removed from plates, solution A [sucrose (0.32 M) with protease inhibitors] was added to the plate, and cells were scraped from plate. Cells were homogenized with 12 strokes of a glass/glass homogenizer. The homogenate was centrifuged at 800×g for 10 min. The supernatant was removed and saved, and the pellet was resuspended, homogenized and centrifuged as above. The supernatants were combined and centrifuged at 10,000×g for 20 min. The pellet was resuspended in solution A (0.75 ml). The membranes were osmotically shocked by addition of 2.625 ml ice cold water and homogenized by 5 strokes of a glass/Teflon homogenizer. The osmolarity was reestablished with addition of Tris (338 μl, 0.25M, pH 7.4 at 4° C.), sodium potassium tartrate (338 μl, 1.0 M), and MgSO4 (4 μl, 0.9M). The homogenate was centrifuged at 20,000×g for 20 min.

Data set [2] has as its target T1, VMAT2. As to the kind of experiment: hVMAT2 [3H]DTBZ ([3H]DHTB) binding assay. Also on record: expressed in transfected cells; host or cells: HEK (human embryonic kidney) cells. How it is done: as §1
Binding was terminated by filtration over Whatman GF/C filters using a Tomtec 96-well cell harvester. Filters were washed for six seconds with ice-cold saline. Scintillation fluid was added to each square and radioactivity remaining on the filters was determined using a Wallac μ- or beta-plate reader. Specific binding was defined as the difference in binding observed in the presence and absence of Ro4-1284 (10 μM, generously supplied by Hoffman LaRoche). Three or more independent competition experiments were conducted with duplicate determinations.

[3] abbreviates: cells printed in μM under a head in nM, read-out: hVMAT2 5HT Uptake IC50 (nM) ± SEM.
[4] abbreviates: cells printed in μM under a head in nM, HEK-hVMAT2 membranes.
[5] abbreviates: [^3H]5HT uptake, HEK-hVMAT2 preparation, read-out: hVMAT2 5HT Uptake IC50 (nM) ± SEM.
Where [6] appears, read: HEK-hVMAT2 membranes, series 5 ligands tested as hydrochloride salts.

T1 sequence (Q05940 whole entry): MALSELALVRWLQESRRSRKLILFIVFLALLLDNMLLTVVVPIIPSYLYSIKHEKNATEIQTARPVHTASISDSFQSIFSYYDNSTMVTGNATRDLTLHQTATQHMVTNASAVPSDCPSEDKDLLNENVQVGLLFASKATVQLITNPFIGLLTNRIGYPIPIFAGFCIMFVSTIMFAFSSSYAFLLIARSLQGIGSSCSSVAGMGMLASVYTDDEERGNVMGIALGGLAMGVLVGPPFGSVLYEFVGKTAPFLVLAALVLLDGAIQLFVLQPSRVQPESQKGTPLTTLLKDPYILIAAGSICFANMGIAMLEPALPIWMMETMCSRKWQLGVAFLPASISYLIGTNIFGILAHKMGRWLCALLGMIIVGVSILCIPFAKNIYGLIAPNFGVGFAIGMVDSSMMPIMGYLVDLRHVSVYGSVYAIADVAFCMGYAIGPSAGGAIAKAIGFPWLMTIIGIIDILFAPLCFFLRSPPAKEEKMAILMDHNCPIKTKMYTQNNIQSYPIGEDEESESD

On to `CCOC(=O)[C@H]1CN(CCn2c(=O)[nH]c3ccccc3c2=O)CC[C@H]1c1cccc(OC(F)(F)F)c1` (racemic) (as salt: HCl) [Compound 5jj, (±)-syn-Ethyl 1-(2-(2,4-dioxo-1,2-dihydroquinazolin-3(4H)-yl)ethyl)-4-(3-(trifluoromethoxy)phenyl)piperidine-3-carboxylate], for which the melting point – broadly, the temperature of the solid-liquid transition – is 155 to 156 °C.
In turn, `O=c1[nH]c2ccccc2c(=O)n1CCN1CCC(c2ccc(F)cc2)CC1` [Compound 16, 3-(2-(4-(4-fluorophenyl)piperidin-1-yl)ethyl)quinazoline-2,4(1H,3H)-dione] had a melting point of 263 to 264 °C.
In the case of `CCOC(=O)[C@@H]1CN(CCn2c(=O)[nH]c3ccccc3c2=O)CC[C@@H]1c1ccc(C(N)=O)cc1` (racemic) [Compound 5i, (±) syn-ethyl 4-(4-carbamoylphenyl)-1-(2-(2,4-dioxo-1,2-dihydroquinazolin-3(4H)-yl)ethyl)piperidine-3-carboxylate], the IC50 (usually the concentration needed to halve the response being measured) in data set [1] (setting [3]) was more than 10 µM. Besides, the Ki (commonly a dissociation constant, usually derived from enzyme kinetics or from competition with a known ligand) in data set [2] (setting [4]) is more than 3 µM.
The compound `COC(=O)[C@H]1CN(CCn2c(=O)[nH]c3ccccc3c2=O)CC[C@H]1c1ccc(F)cc1` (racemic) (as salt: HCl) [Compound 10a, (±)-syn-Methyl 1-(2-(2,4-dioxo-1,2-dihydroquinazolin-3(4H),-yl)ethyl)-4-(4-fluorophenyl) piperidine-3-carboxylate] registered a melting point of 191.5 to 193 °C.
Turning to `CCOC(=O)[C@H]1CN(CCn2c(=O)[nH]c3ccccc3c2=O)CC[C@H]1c1ccccc1N(C)C` (racemic) [Compound 5bb, (±)-syn-Ethyl 4-(2-(dimethylamino)phenyl)-1-(2-(2,4-dioxo-1,2-dihydroquinazolin-3(4H),-yl)ethyl) piperidine-3-carboxylate], the IC50 in data set [1] (setting [3]) is more than 2 µM. The Ki in data set [2] (setting [4]) is more than 6 µM.
Turning to `CCOC(=O)[C@H]1CN(CCn2c(=O)[nH]c3ccccc3c2=O)CC[C@H]1c1cccc(OC)c1` (racemic) [Compound 5q, (±)-syn-Ethyl 1-(2-(2,4-dioxo-1,2-dihydroquinazolin-3(4H),-yl)ethyl)-4-(3-methoxyphenyl) piperidine-3-carboxylate], the IC50 in data set [1] (setting [5]) is 0.18 ± 0.054 µM. This compound displayed a Ki in data set [2] (setting [4]) of more than 10 µM.
`CCOC(=O)[C@H]1CN(CCn2c(=O)[nH]c3ccccc3c2=O)CC[C@H]1c1cccc(N(C)C)c1` (racemic) (as salt: HCl) [Compound 5aa, (±)-syn-Ethyl 4-(3-(dimethylamino)phenyl)-1-(2-(2,4-dioxo-1,2-dihydroquinazolin-3(4H),-yl)ethyl) piperidine-3-carboxylate] displayed a melting point of 179 to 180 °C.
Turning to `CCOC(=O)[C@H]1CN(CCn2c(=O)[nH]c3ccccc3c2=O)CC[C@H]1c1ccc(C(C)C)cc1` (racemic) [Compound 5u, (±)-syn-Ethyl 1-(2-(2,4-dioxo-1,2-dihydroquinazolin-3(4H),-yl)ethyl)-4-(4-isopropylphenyl) piperidine-3-carboxylate], the IC50 in data set [1] (setting [5]) is 0.684 ± 0.249 µM. Moreover, the Ki in data set [2] (setting [6]) was found to be 1.62 ± 0.107 µM.
Take `CCOC(=O)[C@H]1CN(CCn2c(=O)[nH]c3ccccc3c2=O)CC[C@H]1c1ccc(OC)cc1` (racemic) [Compound 5r, (±)-syn-Ethyl 1-(2-(2,4-dioxo-1,2-dihydroquinazolin-3(4H),-yl)ethyl)-4-(4-methoxyphenyl) piperidine-3-carboxylate]: the IC50 in data set [1] (setting [5]) was determined as 0.036 ± 0.011 µM. The compound further showed a Ki in data set [2] (setting [4]) of more than 10 µM.
`CCOC(=O)[C@H]1CN(CCn2c(=O)[nH]c3ccccc3c2=O)CC[C@H]1c1ccc(C(C)C)cc1` (racemic) (as salt: HCl) [Compound 5u, (±)-syn-Ethyl 1-(2-(2,4-dioxo-1,2-dihydroquinazolin-3(4H),-yl)ethyl)-4-(4-isopropylphenyl) piperidine-3-carboxylate] had a melting point of 153 to 154 °C.
Still for that read-out and setting: the result for `O=c1[nH]c2ccccc2c(=O)n1CCN1CC=C(c2ccc(F)cc2)CC1` reads 208 °C.
For `CCOC(=O)[C@H]1CN(CCn2c(=O)[nH]c3ccccc3c2=O)CC[C@H]1c1cccc(C)c1` (racemic) [Compound 5y, (±)-syn-Ethyl 1-(2-(2,4-dioxo-1,2-dihydroquinazolin-3(4H),-yl)ethyl)-4-(m-tolyl)piperidine-3-carboxylate], the IC50 in data set [1] (setting [5]) worked out at 0.053 ± 0.01 µM. In data set [2] (setting [6]), the Ki is more than 6.2 µM.
`CCOC(=O)[C@H]1CN(CCn2c(=O)[nH]c3ccccc3c2=O)CC[C@H]1c1ccc2c(c1)OCCO2` (racemic) (as salt: HCl) [Compound 5gg, (±)-syn-Ethyl 4-(2,3-dihydrobenzo[b][1,4]dioxin-6-yl)-1-(2-(2,4-dioxo-1,2-dihydroquinazolin-3(4H)-yl)ethyl)piperidine-3-carboxylate] came in with a melting point of 178 to 179 °C.
`CCOC(=O)[C@H]1CN(CCn2c(=O)[nH]c3ccccc3c2=O)CC[C@H]1c1ccc(OC(F)(F)F)cc1` (racemic) (as salt: HCl) [Compound 5ii, (±)-syn-ethyl 1-(2-(2,4-dioxo-1,2-dihydroquinazolin-3(4H)-yl)ethyl)-4-(4-(trifluoromethoxy)phenyl)piperidine-3-carboxylate]: the melting point was 150 to 151.5 °C.
In the case of `CCOC(=O)[C@H]1CN(CCN2C(=O)c3ccccc3C2=O)CC[C@H]1c1ccc(F)cc1` (racemic) (as salt: HCl) [Example 144, (±)-syn-Ethyl 1-(2-(1,3-dioxoisoindolin-2-yl)ethyl)-4-(4-fluorophenyl)piperidine-3-carboxylate], the melting point lay in the range of 104.5 to 105.5 °C.
`CCOC(=O)[C@H]1CN(CCn2c(=O)[nH]c3ccccc3c2=O)CC[C@H]1c1ccc(OC(F)(F)F)cc1` (racemic) [Compound 5ii, (±)-syn-ethyl 1-(2-(2,4-dioxo-1,2-dihydroquinazolin-3(4H)-yl)ethyl)-4-(4-(trifluoromethoxy)phenyl)piperidine-3-carboxylate] gave a Ki in data set [2] (setting [4]) of more than 5 µM.
For `CCOC(=O)[C@H]1CN(CCn2c(=O)[nH]c3ccccc3c2=O)CC[C@H]1c1ccc(O)c(O)c1` (racemic) [Compound 5ff, (±)-syn-Ethyl 4-(3,4-dihydroxyphenyl)-1-(2-(2,4-dioxo-1,2-dihydroquinazolin-3(4H)-yl)ethyl)piperidine-3-carboxylate], the IC50 in data set [1] (setting [5]) was 0.333 ± 0.085 µM.
In the case of `CCOC(=O)C1=C(c2ccccc2C(F)(F)F)CCN(CCn2c(=O)[nH]c3ccccc3c2=O)C1` [Compound 5hh, Ethyl 1-(2-(2,4-dioxo-1,2-dihydroquinazolin-3(4H)-yl)ethyl)-4-(2-(trifluoromethyl)phenyl)-1,2,5,6-tetrahydropyridine-3-carboxylate], the IC50 in data set [1] (setting [5]) stood at 0.328 ± 0.038 µM.
For the compound `CCOC(=O)[C@H]1CN(CCn2c(=O)[nH]c3ccccc3c2=O)CC[C@H]1c1ccc(CC)cc1` (racemic) [Compound 5t, (±)-syn-Ethyl 1-(2-(2,4-dioxo-1,2-dihydroquinazolin-3(4H),-yl)ethyl)-4-(4-ethylphenyl) piperidine-3-carboxylate], the IC50 in data set [1] (setting [5]) worked out at 0.906 ± 0.014 µM. The Ki in data set [2] (setting [6]) was more than 8.4 µM.
As to `CCOC(=O)[C@H]1CN(CCn2c(=O)[nH]c3ccccc3c2=O)CC[C@H]1c1ccc(C)s1` [A1=CH3], the IC50 in data set [1] came out at 0.312 ± 0.018 µM. Besides, in data set [2], the Ki was more than 8 µM.
`CCOC(=O)[C@H]1CN(CCn2c(=O)[nH]c3ccccc3c2=O)CC[C@H]1c1cccc(N=[N+]=[N-])c1` (racemic) [Compound 5cc, (±)-syn-Ethyl 4-(3-azidophenyl)-1-(2-(2,4-dioxo-1,2-dihydroquinazolin-3(4H)-yl)ethyl)piperidine-3-carboxylate]: the concentration for half-maximal inhibition (IC50) in data set [1] (setting [5]) was found to be 0.074 ± 0.011 µM. The compound further had a Ki in data set [2] (setting [4]) of more than 7 µM.
For `CCOC(=O)[C@H]1CN(CCn2c(=O)[nH]c3ccccc3c2=O)CC[C@H]1c1ccc(N)cc1` (racemic) [Compound 5mm, (±)-syn-Ethyl 4-(4-aminophenyl)-1-(2-(2,4-dioxo-1,2-dihydroquinazolin-3(4H),-yl)ethyl) piperidine-3-carboxylate], in data set [1] (setting [5]), the IC50 turned out to be 2.15 ± 0.237 µM. This compound registered a Ki in data set [2] (setting [4]) of more than 10 µM.
For the compound `CCOC(=O)[C@H]1CN(CCn2c(=O)[nH]c3ccccc3c2=O)CC[C@H]1c1ccc(OC)c(OC)c1` (racemic) [Compound 5dd, (±)-syn-Ethyl 4-(3,4-dimethoxyphenyl)-1-(2-(2,4-dioxo-1,2-dihydroquinazolin-3(4H),-yl)ethyl) piperidine-3-carboxylate], in data set [1] (setting [3]), the IC50 is more than 3 µM. This compound also registered a Ki in data set [2] (setting [4]) of more than 10 µM.
Consider `O=C(c1ccc(F)cc1)C1CCN(CCn2c(=O)[nH]c3ccccc3c2=O)CC1` [R1=H, R2=H], for which the IC50 in data set [1] (setting [5]) was found to be 0.142 ± 0.023 µM. Also, the Ki in data set [2] (setting [6]) turned out to be 0.119 ± 0.003 µM.
Consider `CCOC(=O)[C@H]1CN(CCn2c(=O)[nH]c3ccccc3c2=O)CC[C@H]1c1ccccc1C` (racemic) [Compound 5z, (±)-syn-Ethyl 1-(2-(2,4-dioxo-1,2-dihydroquinazolin-3(4H),-yl)ethyl)-4-(o-tolyl)piperidine-3-carboxylate], for which the IC50 in data set [1] (setting [5]) was 0.031 ± 0.003 µM. The same compound gave a Ki in data set [2] (setting [4]) of more than 5 µM.
